In one series the test system is MCF7 cultures. Description: Stability of flavonoids in the cell cultures, HPLC. Format: in vitro ADME, human. The following applies: 100 μg/mL, 3 h of incubation. As for the experimental part: (§1) Flavonoids dissolved (as described in Section 2.4) were added to the HLMEC and MCF7 line cultures, and the final concentration was 100 μg/mL. The cultures were incubated in 96-well plates for 3 h and transferred to microtubes containing 400 µL of cold methanol (−20 °C) and kept at −20 °C for 1 h. After centrifugation at 12,000× g for 10 min, samples were analyzed by HPLC. To determine the stability of flavonoids in HLMEC and MCF7 culture media (not containing cells) under analogous conditions, control experiments were also carried out.

In another series the test system is HLMEC cultures. Put plainly: Stability of flavonoids in the cell cultures, HPLC. Format: in vitro ADME, human. Particulars: 100 μg/mL, 3 h of incubation. As to the method: as §1
In series [1] the test system is MV-4-11 (biphenotypic B myelomonocytic leukemia). Description: Antiproliferative activity in vitro, MTT assay. Format: cell-based, human. The following applies: Homo sapiens, MV4-11, 72 h exposure, read-out: IC50 ± SD MV-4-11. In general terms: Formazan colour is commonly taken as a measure of viable cells.
The subject of series [2] is LoVo/DX (colon cancer doxorubicin-resistant). Description: Antiproliferative activity in vitro, SRB assay. Format: cell-based, human. The following applies: Homo sapiens, LoVo/DX, 72 h exposure, read-out: IC50 ± SD LoVo/DX. (In general: Sulforhodamine B stains cellular protein and so reports cell mass.)
A short description of series [3]: Stability of flavonoids before administration to the cell cultures (diluted in RPMI 1640/Opti-MEM medium), HPLC. Format: physicochemical. The following applies: 100 µg/mL, medium with 2 mM L-glutamine, 5% fetal bovine serum, penicillin, streptomycin; 3 h incubation. As to the method: Tested compounds were dissolved in DMSO and then diluted in a 1:1 (v/v) mixture of RPMI 1640 (HIIET, PAS, Wroclaw, Poland) and Opti-MEM (Gibco, Scotland, UK) medium supplemented with 2 mM L-glutamine (Sigma-Aldrich, Poznan, Poland), 5% fetal bovine serum (GE Healthcare), 100 units/mL penicillin (Polfa Tarchomin S.A., Warsaw, Poland), and 100 µg/mL streptomycin (Sigma-Aldrich, Poznan, Poland). The antiproliferative effects of the flavonoids were examined after 72 h of exposure of the cultured cells to varying concentrations of the tested agents (from 0.1 to 100 μg/mL) using the MTT (for MV-4-11 cells) or SRB assay described below. Cisplatin (chemotherapy drug used to treat a number of cancers) was used as a positive control. The results are presented as an inhibitory concentration 50 (IC50), which is the concentration of the tested agent that inhibits proliferation of the cell population by 50%. IC50 values for each experiment were calculated separately.
Flavonoids were dissolved (as described in Section 2.4) to the concentration of 100 µg/mL. The solutions corresponding to the solutions before the administration to the cell cultures were incubated in 96-well plates for 3 h and transferred to microtubes containing 400 µL of cold methanol (−20 °C) and kept at −20 °C for 1 h. After centrifugation at 12,000× g for 10 min, samples were analyzed by HPLC. Control experiments were also carried out to determine the stability of flavonoids in DMSO under analogous conditions.

SMILES strings stand for the structures.

For `O=c1cc(-c2ccc(O)cc2)oc2cc(O)cc(O)c12` [Compound 2, apigenin], the “compound remaining after incubation in MCF7 cultures” value in the series on MCF7 cultures is “over 98%”. Moreover, the “compound remaining after incubation in HLMEC cultures” value in the series on HLMEC cultures was “over 98%”. The IC50 in series [1] turned out to be 8.18 ± 2.76 µM; in series [2] it was 11.6 ± 1.35 µM. Moreover, in series [3], the “stability after dilution with 1:1 RPMI 1640/Opti-MEM medium” value is “stable”.

As for `O=C1C[C@@H](c2ccc(O)cc2)Oc2cc(O)cc(O)c21` [Compound 6, naringenin], in the series with MCF7 cultures, the “compound remaining after incubation in MCF7 cultures” value was “over 98%”. Besides, the “compound remaining after incubation in HLMEC cultures” value in the series with HLMEC cultures was “over 98%”. Moreover, the results for the IC50 in series [1] and in series [2] were 146 ± 19.1 µM and 129 ± 9.74 µM, respectively. Further, in series [3], the “stability after dilution with 1:1 RPMI 1640/Opti-MEM medium” value was “stable”.

As to `O=c1cc(-c2ccc(O)cc2)oc2c(O)c(O)cc(O)c12` [Compound 10, 8-hydroxyapigenin], the “stability after dilution with 1:1 RPMI 1640/Opti-MEM medium” value in series [3] is “complete decomposition”.

These data come from publication PMC6680932, “Structure–Antioxidant–Antiproliferative Activity Relationships of Natural C7 and C7–C8 Hydroxylated Flavones and Flavanones” (Antioxidants, 2019).
